In the NIST ThermoML archive (doi:10.1021/acs.jced.9b00248):
± gives the expanded uncertainty stated by the source.

Test: mn = molality of the nth substance listed, in mol/kg
Details: Liquid; for viscosity: Vibrating wire viscometry; for mass density: Vibrating tube method

[Cl-].[Na+] [sodium chloride] + O
Details | mass density [kg/m3] | viscosity [mPa·s]
274.65 K, 1400 kPa, m1 = 0.77 | – | 1.748 ± 0.053
274.65 K, 15300 kPa, m1 = 0.77 | – | 1.718 ± 0.052
274.65 K, 30200 kPa, m1 = 0.77 | – | 1.704 ± 0.052
274.65 K, 50100 kPa, m1 = 0.77 | – | 1.7 ± 0.052
274.83 K, 15210 kPa, m1 = 0.77 | 1039.38 ± 0.69 | –
274.83 K, 30120 kPa, m1 = 0.77 | 1045.95 ± 0.7 | –
274.83 K, 49950 kPa, m1 = 0.77 | 1054.41 ± 0.71 | –
274.83 K, 69810 kPa, m1 = 0.77 | 1062.53 ± 0.73 | –
274.83 K, 99820 kPa, m1 = 0.77 | 1074.13 ± 0.78 | –
274.95 K, 1340 kPa, m1 = 2.5 | 1098.36 ± 0.87 | –
274.95 K, 15260 kPa, m1 = 2.5 | 1103.81 ± 0.88 | –
274.95 K, 30190 kPa, m1 = 2.5 | 1109.5 ± 0.89 | –
274.95 K, 50040 kPa, m1 = 2.5 | 1116.83 ± 0.92 | –
274.95 K, 69930 kPa, m1 = 2.5 | 1123.92 ± 0.97 | –
274.95 K, 99990 kPa, m1 = 2.5 | 1134.12 ± 1.1 | –
296.19 K, 1330 kPa, m1 = 2.5 | 1090.47 ± 0.85 | –
296.19 K, 15240 kPa, m1 = 2.5 | 1095.73 ± 0.86 | –
296.19 K, 30160 kPa, m1 = 2.5 | 1101.16 ± 0.87 | –
296.19 K, 50020 kPa, m1 = 2.5 | 1108.18 ± 0.92 | –
296.19 K, 69880 kPa, m1 = 2.5 | 1115.02 ± 0.96 | –
296.19 K, 99980 kPa, m1 = 2.5 | 1124.82 ± 1 | –
296.22 K, 1380 kPa, m1 = 0.77 | 1028.25 ± 0.69 | –
296.22 K, 15220 kPa, m1 = 0.77 | 1034.12 ± 0.7 | –
296.22 K, 49930 kPa, m1 = 0.77 | 1048.04 ± 0.71 | –
296.22 K, 69810 kPa, m1 = 0.77 | 1055.61 ± 0.72 | –
296.22 K, 99840 kPa, m1 = 0.77 | 1066.51 ± 0.76 | –
323.3 K, 1380 kPa, m1 = 2.5 | 1077.94 ± 0.83 | –
323.3 K, 15290 kPa, m1 = 2.5 | 1083.2 ± 0.84 | –
323.3 K, 30220 kPa, m1 = 2.5 | 1088.58 ± 0.85 | –
323.3 K, 50060 kPa, m1 = 2.5 | 1095.53 ± 0.91 | –
323.3 K, 69950 kPa, m1 = 2.5 | 1102.24 ± 0.94 | –
323.3 K, 100010 kPa, m1 = 2.5 | 1111.99 ± 1 | –
323.33 K, 1340 kPa, m1 = 0.77 | 1017.8 ± 0.69 | –
323.33 K, 15260 kPa, m1 = 0.77 | 1023.47 ± 0.69 | –
323.33 K, 30160 kPa, m1 = 0.77 | 1029.36 ± 0.7 | –
323.33 K, 69840 kPa, m1 = 0.77 | 1044.3 ± 0.71 | –
323.33 K, 99890 kPa, m1 = 0.77 | 1054.9 ± 0.74 | –
348.21 K, 1360 kPa, m1 = 2.5 | 1064.12 ± 0.82 | –
348.21 K, 1380 kPa, m1 = 0.77 | 1004.37 ± 0.68 | –
348.21 K, 15260 kPa, m1 = 0.77 | 1010.15 ± 0.68 | –
348.21 K, 15270 kPa, m1 = 2.5 | 1069.47 ± 0.83 | –
348.21 K, 30180 kPa, m1 = 0.77 | 1016.18 ± 0.69 | –
348.21 K, 30200 kPa, m1 = 2.5 | 1075.01 ± 0.84 | –
348.21 K, 50000 kPa, m1 = 0.77 | 1023.83 ± 0.69 | –
348.21 K, 50060 kPa, m1 = 2.5 | 1082.15 ± 0.85 | –
348.21 K, 69880 kPa, m1 = 0.77 | 1031.26 ± 0.69 | –
348.21 K, 69960 kPa, m1 = 2.5 | 1089.02 ± 0.94 | –
348.21 K, 99920 kPa, m1 = 0.77 | 1041.89 ± 0.72 | –
348.21 K, 100020 kPa, m1 = 2.5 | 1098.91 ± 1 | –
348.34 K, 1400 kPa, m1 = 0.77 | – | 0.412 ± 0.013
348.34 K, 15300 kPa, m1 = 0.77 | – | 0.416 ± 0.013
348.34 K, 30200 kPa, m1 = 0.77 | – | 0.421 ± 0.014
348.34 K, 50000 kPa, m1 = 0.77 | – | 0.429 ± 0.014
348.34 K, 69900 kPa, m1 = 0.77 | – | 0.433 ± 0.014
373.22 K, 1380 kPa, m1 = 2.5 | 1047.69 ± 0.81 | –
373.22 K, 15310 kPa, m1 = 2.5 | 1053.49 ± 0.82 | –
373.22 K, 30230 kPa, m1 = 2.5 | 1059.36 ± 0.83 | –
373.22 K, 50090 kPa, m1 = 2.5 | 1066.79 ± 0.84 | –
373.22 K, 69960 kPa, m1 = 2.5 | 1073.94 ± 0.86 | –
373.22 K, 100040 kPa, m1 = 2.5 | 1084.13 ± 0.98 | –
373.25 K, 1400 kPa, m1 = 0.77 | 988.09 ± 0.67 | –
373.25 K, 15310 kPa, m1 = 0.77 | 994.18 ± 0.67 | –
373.25 K, 30220 kPa, m1 = 0.77 | 1000.44 ± 0.67 | –
373.25 K, 50060 kPa, m1 = 0.77 | 1008.5 ± 0.68 | –
373.25 K, 69930 kPa, m1 = 0.77 | 1016.2 ± 0.69 | –
373.25 K, 99960 kPa, m1 = 0.77 | 1027.15 ± 0.69 | –
373.31 K, 1400 kPa, m1 = 0.77 | – | 0.31 ± 0.01
373.31 K, 30200 kPa, m1 = 0.77 | – | 0.318 ± 0.011
373.31 K, 50000 kPa, m1 = 0.77 | – | 0.323 ± 0.011
373.31 K, 69900 kPa, m1 = 0.77 | – | 0.329 ± 0.011
373.31 K, 100000 kPa, m1 = 0.77 | – | 0.338 ± 0.011
398.18 K, 1400 kPa, m1 = 0.77 | – | 0.247 ± 0.009
398.18 K, 15300 kPa, m1 = 0.77 | – | 0.251 ± 0.009
398.18 K, 30200 kPa, m1 = 0.77 | – | 0.256 ± 0.009
398.18 K, 50100 kPa, m1 = 0.77 | – | 0.26 ± 0.009
398.18 K, 70000 kPa, m1 = 0.77 | – | 0.265 ± 0.009
398.18 K, 100000 kPa, m1 = 0.77 | – | 0.273 ± 0.009
398.29 K, 1390 kPa, m1 = 2.5 | 1029.58 ± 0.94 | –
398.29 K, 15300 kPa, m1 = 2.5 | 1035.58 ± 0.94 | –
398.29 K, 30230 kPa, m1 = 2.5 | 1041.92 ± 0.93 | –
398.29 K, 50080 kPa, m1 = 2.5 | 1049.89 ± 0.93 | –
398.29 K, 69980 kPa, m1 = 2.5 | 1057.41 ± 0.94 | –
398.29 K, 100050 kPa, m1 = 2.5 | 1068.15 ± 0.97 | –
398.81 K, 1460 kPa, m1 = 0.77 | 969.16 ± 0.64 | –
398.81 K, 15370 kPa, m1 = 0.77 | 975.7 ± 0.65 | –
398.81 K, 30260 kPa, m1 = 0.77 | 982.49 ± 0.65 | –
398.81 K, 50080 kPa, m1 = 0.77 | 991.06 ± 0.66 | –
398.81 K, 69950 kPa, m1 = 0.77 | 999.13 ± 0.66 | –
398.81 K, 99990 kPa, m1 = 0.77 | 1010.69 ± 0.67 | –
423.31 K, 15300 kPa, m1 = 0.77 | – | 0.206 ± 0.008
423.31 K, 30200 kPa, m1 = 0.77 | – | 0.212 ± 0.008
423.31 K, 50100 kPa, m1 = 0.77 | – | 0.216 ± 0.008
423.31 K, 70000 kPa, m1 = 0.77 | – | 0.22 ± 0.008
423.31 K, 100000 kPa, m1 = 0.77 | – | 0.228 ± 0.008
423.62 K, 1410 kPa, m1 = 2.5 | 1009.24 ± 0.98 | –
423.62 K, 15330 kPa, m1 = 2.5 | 1015.81 ± 0.97 | –
423.62 K, 30250 kPa, m1 = 2.5 | 1022.75 ± 0.81 | –
423.62 K, 50100 kPa, m1 = 2.5 | 1031.25 ± 0.81 | –
423.62 K, 69990 kPa, m1 = 2.5 | 1039.38 ± 0.82 | –
423.62 K, 100050 kPa, m1 = 2.5 | 1050.77 ± 0.96 | –
423.73 K, 1450 kPa, m1 = 0.77 | 947.66 ± 0.63 | –
423.73 K, 15370 kPa, m1 = 0.77 | 954.86 ± 0.64 | –
423.73 K, 30270 kPa, m1 = 0.77 | 962.29 ± 0.66 | –
423.73 K, 50110 kPa, m1 = 0.77 | 971.57 ± 0.66 | –
423.73 K, 69960 kPa, m1 = 0.77 | 980.32 ± 0.67 | –
423.73 K, 100000 kPa, m1 = 0.77 | 992.59 ± 0.66 | –
448.27 K, 30300 kPa, m1 = 0.77 | – | 0.181 ± 0.007
448.27 K, 50100 kPa, m1 = 0.77 | – | 0.185 ± 0.007
448.27 K, 70000 kPa, m1 = 0.77 | – | 0.19 ± 0.007
448.27 K, 100000 kPa, m1 = 0.77 | – | 0.197 ± 0.007
448.85 K, 1410 kPa, m1 = 2.5 | 987.39 ± 1 | –
448.85 K, 15330 kPa, m1 = 2.5 | 994.66 ± 0.98 | –
448.85 K, 30260 kPa, m1 = 2.5 | 1002.41 ± 0.97 | –
448.85 K, 50110 kPa, m1 = 2.5 | 1011.56 ± 0.8 | –
448.97 K, 1460 kPa, m1 = 0.77 | 923.83 ± 0.62 | –
448.97 K, 15380 kPa, m1 = 0.77 | 932.02 ± 0.63 | –
448.97 K, 30290 kPa, m1 = 0.77 | 940.31 ± 0.63 | –
448.97 K, 50120 kPa, m1 = 0.77 | 950.53 ± 0.66 | –
448.97 K, 69980 kPa, m1 = 0.77 | 960.05 ± 0.67 | –
448.97 K, 100000 kPa, m1 = 0.77 | 973.43 ± 0.66 | –
